Values of other authors as cited in patent US10953063B2, “Method of treating select cancers using timed administration of plant extract from species Physalis pubescens and Hedyotis diffusa willd” (priority 2018, dated 2021).

System: human leukemia cells
Settings: research findings

## Cc1cc2c(cc1O)C(=O)c1ccccc1C2=O [2-Hydroxy-3-Methylanthraguinone]
  apoptosis in human leukemia cells: induces apoptosis
